Several values for one entry are separate records, joined by “and”; a condition that tells them apart may be missing. Equal entries are not always repeated. Entries after “also recorded” stand apart in the source; their conditions may differ.
Experiments:
[1] = Plasma potassium levels in sheep of the MCC study; format: in vivo
Description: (§1) In these studies, adult sheep were restrained and nasally intubated with an endotracheal tube. Aerosolized test articles were administered over 10-15 minutes to sheep. Radiolabeled ^99mTc-sulfur colloid (TSC, 3.1 mg/mL; containing approximately 20 mCi) was then administered at a specified time four or eight hours after test article. The radiolabeled aerosol was administered through the endotracheal tube for about 5 minutes. The sheep were then extubated, and total radioactive counts in the lung were measured every 5 minutes for a 1-hour observation period. The rate of radiolabel clearance from the lung is representative of the MCC rate in the animal. The advantage of this system is that it closely simulates the human lung environment. The model also allows for the collection of simultaneous PK/PD information through plasma and urine sampling over the test period. There are also several techniques to measure the drug concentrations on the airway surface during the MCC measurements. These include the collection of exhaled breath condensates or a filter paper method to obtain ASL via bronchoscopy.
The compound of Comparative Example 1 can be seen on page 15 of US 2005/0080093 and as Compound 2 on page 90 of WO 2008/031048, and as Compound 2 on pages 42-43 of WO 2008/031028. […] In order to evaluate this potential, it is beneficial to have MCC activity in vivo and not cause elevation of plasma potassium at the useful dose. One model to assess this is the sheep MCC model described below.

[2] = system: human bronchial epithelial (HBE) cells; assay: Airway surface liquid drug clearance and metabolism by human airway epithelium; format: in vitro ADME
Description: The disappearance of 33 from the apical surface and airway epithelial metabolism were assessed in human bronchial epithelial (HBE) cells (Table 3). In these experiments 25 μL of a 25 μM solution of ENaC blocker was added to the apical surface of HBE cells grown at an air/liquid interface, and the drug and metabolite concentration in the apical and basolateral compartment was measured over 2 h by UPLC.
Therefore, the compounds of formula (I) have a longer half-life on mucosal surfaces compared to these know compounds as evidenced by the data shown in Table G. The disappearance of Compound 33 from the apical surface and airway epithelial metabolism were assessed in HBE and compared to Comparative Example 1 (Table H). In these experiments 25 μL of a 25 μM solution of ENaC blocker was added to the apical surface of HBE cells grown at an air/liquid interface, and the drug concentration in the apical and basolateral compartment was measured over 2 h by UPLC.

Sheep MCC = assay: Mucociliary clearance (MCC) studies in sheep; format: in vivo; settings: for AUC (% CI × h) / Initial Slope (4.0-4.5 h): MCC at 4 h post-dose
Description: The animal model that has been used most often to measure changes in MCC is the sheep model. The effect of compounds for enhancing mucociliary clearance (MCC) can be measured using an in vivo model described by Sabater et al., Journal of Applied Physiology, 1999, pp. 2191-2196, incorporated herein by reference.
as §1
The ovine model described above was used to evaluate the in vivo effects (efficacy/durability) of aerosol-delivered test agent on MCC. Treatments consisting of either 4 mL of test agent or test agent in combination with HS were tested. To determine if combining HS with test agent enhanced MCC, HS was administered immediately following test agent administration. Test solutions were aerosolized using a Raindrop nebulizer at a flowrate of eight liters per minute and connected to a dosimetry system consisting of a solenoid valve and a source of compressed air (20 psi). The deposited dose of drug in sheep lungs after an aerosol administration using the Raindrop nebulizer is estimated to be 8-15% of the dose. Using a Raindrop nebulizer, radiolabeled TSC was administered over approximately 3 minutes either 4 or 8 hours after drug treatment to evaluate efficacy/durability. Radioactive counts were measured in a central region in the right lung at 5 min intervals for one hour with a gamma camera. Three methods of analysis were utilized, 1) initial rate of clearance (slope) over the first 30 min fitted using linear regression 2) area under the curve for % clearance over time over one hour, and 3) the maximum clearance obtained in one hour.

[3] = sheep, solution concentration given beside the dose
[4] = HBE cells at air/liquid interface, 25 μL of 25 μM apical, mean ± SD
[5] = HBE cells, 25 μL of 25 μM apical, parent only

## N=C(NCCCCc1ccc(OC[C@H](N)C(N)=O)cc1)NC(=O)c1nc(Cl)c(N)nc1N [Comparative Example 1, (S)-3,5-diamino-6-chloro-N—(N-(4-(4-(2,3-diamino-3-oxopropoxy)phenyl)butyl)carbamimidoyl)pyrazine-2-carboxamide]
[1]; sheep of the MCC study, at efficacious dose
  effect on plasma potassium: causes a rise in plasma potassium; also recorded: elevations of plasma K
[1]; [3]
  Top Dose in Sheep with no Elevation of Plasma Potassium: 24 nmol/kg (300 μM)
[2]; [4]
  % of Apical Mass as Metabolites (2 h): 83% and 83.0 ± 3.5%
  % on Basolateral Side as Metabolites (2 h): 94.7 ± 1.0%
[2]; [5]
  % of Initial Apical Mass on Basolateral Side as Parent (2 h): (1% Parent)
  % of Initial Drug Mass on Apical Side as Parent (2 h): (8% Parent)
[2]; HBE cells, apical surface, 37° C.
  fate on the apical side after 2 h incubation: eliminated from the apical side
Sheep MCC; Ovis aries, using slope, AUC and Maximum Clearance, read-out: ED50 in the sheep MCC model
  ED50: ~0.24 µmol/kg
Sheep MCC; approximate ED50 dose as concentration of dosing solution
  ED50 in the sheep MCC model (solution concentration): ~3000 µM
Sheep MCC; sheep, 24 nmol/kg (300 μM)
  AUC (% CI × h): 6.9 ± 1.0 (3) % CI × h
  Initial Slope (4.0-4.5 h): 14.5 ± 1.3 (3)
Sheep MCC; sheep, 240 nmol/kg (3 mM)
  AUC (% CI × h): 14.1 ± 2.2 (6) % CI × h
  Initial Slope (4.0-4.5 h): 32.2 ± 7.3 (6)
Sheep MCC; [3]
  MCC Highest Submaximal Dose: 240 nmol/kg (3 mM)
Sheep MCC; sheep, top dose without plasma potassium elevation vs MCC highest submaximal dose
  Therapeutic Ratio (Benefit/Risk): 0.1
